Key:
[1] = system: HCV replicon (pSGR-399LM) in Huh7 cells; experiment: Inhibitory activity in the HCV replicon system (Renilla luciferase); type: cell-based; settings: Hepatitis C virus, Huh-7, pSGR-399LM replicon Huh7 cells, 72 hr
Description: The Inhibitory Activity of Compounds in the HCV Replicon System
HCV replicon cell-line: The Huh7 cells were transfected with pSGR-399LM replicon DNA and cultured in the DMEM containing 10% FBS and 0.5 mg/mL G418. The cells were split at 1:3 to 1:5 every 3-4 days. The transfected cells were seeded in 96-well plates and cultured at 37° C., 5% CO2 for 24 hr.
Treatment with samples: To the HCV replicon Huh7 cells-line were added different concentration of the samples (i.e. compound Ik, wherein k=1, 2, 3 . . . 42), the each concentration for duplicate, and set no sample control wells. The concentration started at 400 nM, with quarter dilution to form five different concentrations of samples, that is 400 nM, 100 nM, 25 nM, 6.25 nM and 1.56 nM. The samples were added separately, and continued to incubated for 72 hr.
Fluorescence detection: After 72 hr treatment with sample, the cells were lysed and added with Renilla luciferase substrate to detect luminescent signal. The relative luminescent unit (RLU) in the luminometer was read out and used to calculate the inhibition rate of HCV.

[2] = system: HCV (J399EM virus) in Huh7.5.1 cells; experiment: Inhibition of HCV replication in HCV infected human hepatocellular carcinoma cells (Huh7.5.1), HCV-EGFP fluorescence; type: cell-based; settings: Hepatitis C virus, Huh-7.5.1, 72 h, read-out: HCV infected human hepatocellular carcinoma cells in vitro EC50(nM)
Description: In Vitro Inhibitory Activity of Compounds in HCV Replication in HCV Infected Human Hepatocellular Carcinoma Cells (Huh7.5.1)
The preparation of Huh7.5.1cells: Huh 7.5.1 cells were seeded at a 96-well plate with 37 and 5% CO2 for 24 hours incubation.
Virus infection: Using the J399EM virus supernatants (moi≈0.1) to infect Huh7.5.1cells. At the same time, the no virus infected cell will be set up as the control. After 8 hours virus infection, the virus will be washed out with PBS.
Drug treatment: The different doses of samples (i.e. the compound Ik, wherein k=1, 2, 3, . . . 42) were added in J399EM infected Huh7.5.1 cells, the each dose for duplicate. At the same time the no sample added in wells will be set up as the control. The test dose of sample is starting from 25 nM or 400 nM, with quarter dilution, 5 doses of sample will be added in the test wells, respectively, then continued for 72 hours incubation.
HCV-EGFP fluorescence detection: After samples treatment for 72 hours, the autofluorescence of HCV-EGFP were measured by the luminometer with excitation of 488 nm, and emission of 516 nm. The related fluorescence unit (RFU) of samples will be read out and used for calculating the inhibitory rates of compounds in HCV replication.

SMILES	EC50 [1] [nM]	EC50 [2] [nM]
C=C[C@@H]1C[C@]1(NC(=O)[C@@H]1C[C@@H](Oc2nc3c4cc(OC)ccc4oc3c3ccccc23)CN1C(=O)[C@@H](NC(=O)OC(C)(C)C)C(C)(C)C)C(=O)NS(=O)(=O)C1CC1 [Compound 15]	100 to 1000	100 to 1000
C=C[C@@H]1C[C@]1(NC(=O)[C@@H]1C[C@@H](Oc2nc3c4cc(Cl)ccc4oc3c3ccc(Cl)cc23)CN1C(=O)[C@@H](NC(=O)OC(C)(C)C)C(C)(C)C)C(=O)NS(=O)(=O)C1CC1 [Compound 33]	100 to 1000	100 to 1000
C=C[C@@H]1C[C@]1(NC(=O)[C@@H]1C[C@@H](Oc2cc(-c3cnc(C(C)(C)O)s3)nc3c2oc2ccc(OC)c(Br)c23)CN1C(=O)[C@@H](NC(=O)OC(C)(C)C)C(C)(C)C)C(=O)NS(=O)(=O)C1CC1 [Compound 40]	< 100	< 100
C=C[C@@H]1C[C@]1(NC(=O)[C@@H]1C[C@@H](Oc2cc(-c3ccccc3)nc3c2oc2ccc(OC)c(Cl)c23)CN1C(=O)[C@@H](NC(=O)OC(C)(C)C)C(C)(C)C)C(=O)NS(=O)(=O)C1CC1 [Compound 23]	< 100	< 100
C=C[C@@H]1C[C@]1(NC(=O)[C@@H]1C[C@@H](Oc2cc(-c3ccccc3)nc3c2sc2ccccc23)CN1C(=O)[C@@H](NC(=O)OC(C)(C)C)C(C)(C)C)C(=O)NS(=O)(=O)C1CC1 [Compound 9]	< 100	100 to 1000
COc1ccc2oc3c4ccc(Cl)cc4c(O[C@@H]4C[C@H]5C(=O)N[C@]6(C(=O)NS(=O)(=O)C7CC7)C[C@H]6/C=C\CCCCC[C@H](NC(=O)OC(C)(C)C)C(=O)N5C4)nc3c2c1 [Compound 19]	< 100	< 100
C=C[C@@H]1C[C@]1(NC(=O)[C@@H]1C[C@@H](Oc2cc(-c3ccccc3)nc3c2oc2ccc(OC)c(Br)c23)CN1C(=O)[C@@H](NC(=O)OC1CCCC1)C(C)(C)C)C(=O)NS(=O)(=O)C1CC1 [Compound 28]	< 100	< 100
C=C[C@@H]1C[C@]1(NC(=O)[C@@H]1C[C@@H](Oc2cc(-c3ccccc3)nc3c2oc2ccc(OC)c(Cl)c23)CN1C(=O)[C@@H](NC(=O)OC1CCCC1)C(C)(C)C)C(=O)NS(=O)(=O)C1CC1 [Compound 22]	< 100	< 100
C=C[C@@H]1C[C@]1(NC(=O)[C@@H]1C[C@@H](Oc2cc(-c3ccccc3)nc3c2oc2ccc(OC)cc23)CN1C(=O)[C@@H](NC(=O)OC1CCCC1)C(C)(C)C)C(=O)NS(=O)(=O)C1CC1 [Compound 21]	< 100	100 to 1000
C=C[C@@H]1C[C@]1(NC(=O)[C@@H]1C[C@@H](Oc2cc(-c3cnc(C(C)(C)O)s3)nc3c2oc2ccc(OC)c(Cl)c23)CN1C(=O)[C@@H](NC(=O)OC(C)(C)C)C(C)(C)C)C(=O)NS(=O)(=O)C1CC1 [Compound 39]	< 100	< 100
C=C[C@@H]1C[C@]1(NC(=O)[C@@H]1C[C@@H](Oc2cc(-c3ccccc3)nc3c2oc2ccccc23)CN1C(=O)[C@@H](CC(=O)N1CCCCC1)C(C)(C)C)C(=O)NS(=O)(=O)C1CC1 [Compound 37]	100 to 1000	100 to 1000
C=C[C@@H]1C[C@]1(NC(=O)[C@@H]1C[C@@H](Oc2nc3c4cc(Cl)ccc4oc3c3ccccc23)CN1C(=O)[C@@H](CC(=O)N1CCCCC1)C(C)(C)C)C(=O)NS(=O)(=O)C1CC1 [Compound 14, (2S,4R)-1-((S)-2-tert-butyl-4-oxo-4-(piperidin-1-yl)butanoyl)-4-(8-chlorobenzofuro[3,2-c]isoquinolin-5-yloxy)-N-((1R,2S)-1-(cyclopropylsulfonylcarbamoyl)-2-vinylcyclopropyl)pyrrolidine-2-carboxamide]	< 100	100 to 1000
CC(C)(C)OC(=O)N[C@H]1CCCCC/C=C\[C@@H]2C[C@@]2(C(=O)NS(=O)(=O)C2CC2)NC(=O)[C@@H]2C[C@@H](Oc3nc4c5ccccc5oc4c4ccccc34)CN2C1=O [Compound 6]	< 100	< 100

Source: patent publication US8969373B2, “HCV protease inhibitors” (Shanghai Tangrun Pharmaceuticals Co., Ltd., priority 2011, dated 2015)
